Reference: a melting point compilation (Tetko et al.; mined from patent text by program, amines drawn as free bases though some values may be those of a salt)

Row | melting point | SMILES
1 | 59 to 62 °C | O=C1[C@@H](CCCO)O[C@H](c2ccccc2)c2ccccc2N1Cc1ccccc1 (relative stereo)
2 | 187 to 188 °C | Nc1cc(NC(=O)c2ccccc2)ccn1
3 | 77 to 80 °C | Cc1ccc(-c2nc(Cc3cc4cc(N(OCc5ccccc5)C(N)=O)ccc4o3)c(C)o2)cc1
4 | 73 to 74 °C | CCCN(CCC)C(=O)C(C)Oc1nc(-c2ccccc2)nc2c1CCCC2 (centres undefined)
5 | 292 °C | O=c1[nH]c2c3ccccc3ccc2n(CC2CC2)c1=O
6 | 189 to 190 °C | CC(=O)N1c2ccccc2CCc2ccc(C(=O)O)cc21
7 | 128 °C | O/C(=C\c1nc2ccccc2c2nccn12)c1cccs1
8 | 260 to 263 °C | Cc1nc(-c2ccccc2)cc(-c2ccc([N+](=O)[O-])cc2)c1C(=O)O
9 | 180 to 182 °C | O=C(O)c1ccc(=O)n(CCCNC(=O)c2ccccn2)c1
10 | 106 to 108 °C | O=C1OC(=O)c2cc(N=C=S)ccc21
11 | 146 to 148 °C | Cc1nc(-c2ccc(C(F)(F)F)cc2)sc1N
12 | 83 to 84 °C | CSCC1CCN(c2cn(-c3cccnc3)nc2Cl)C1=O (centres undefined)
13 | 219 to 223 °C | O=C(Oc1cc(F)ccc1[N+](=O)[O-])c1cc2ccccc2oc1=O
14 | 206 to 218 °C | CC(Cc1c[nH]c2ccccc12)(NC(=O)OC12CC3CC(CC(C3)C1)C2)C(=O)O (racemic)
15 | 123 to 124 °C | CC(C)n1c(NN)nc2ccccc2c1=O
16 | 128 to 130 °C | Cc1cccc(-c2[nH]c(C(C)C)nc2-c2cccc(-c3ccc(NS(C)(=O)=O)cc3)c2)n1
17 | 167 °C | COc1ccccc1OCC(O)CN1CCCC(Cn2c(=O)[nH]c3ccc(Cl)cc32)C1 (centres undefined)
18 | 119 °C | N#Cc1ccc(C=Cc2ccccc2)cc1
19 | 173 to 175 °C | CCCOc1cccc(C2(c3ccncc3)N=C(N)N(C)C2=O)c1 (centres undefined)

Row | melting point | SMILES
20 | 147 to 150 °C | COC(=O)c1ccc2[nH]nnc2c1C(=O)OC
21 | 185 to 186 °C | CC(=O)NC1Cc2cccc3cccc(c23)C1=O (centres undefined)
22 | 125 to 126 °C | N#Cc1c(NC2CCCCC2)cccc1-c1ccccc1
23 | 98 to 99 °C | Cc1c(NCc2ccccc2)c2c(c3c1C(c1ccc(C(C)C)cc1)CO3)CCCC2 (centres undefined)
24 | 279 to 280 °C | O=C(O)C1CCc2c(c(=O)c3cccnc3n2-c2cccc(Cl)c2)C1 (centres undefined)
25 | 144 to 146 °C | COc1ccc(CN2CC=C(/C=C/c3ccccc3)CC2)cc1
26 | 134 to 135 °C | CC(C)Oc1ccc(Cc2ccc(NC3=NCCN3)cc2)s1
27 | 90 to 91 °C | CC(C)N(CCC(CCN(C)C1CCCCC1)(C(N)=O)c1ccccc1)C(C)C (centres undefined)
28 | 158 to 162 °C | CN(C)c1ccc(C=CC(O)Cc2ccccc2)cc1 (centres undefined)
29 | 83 to 86 °C | CSc1onc(-c2ccccc2)c1-c1ccccc1
30 | 115 to 117 °C | O=c1c(CO)cc(-c2ccc3c(c2)CCO3)nn1CC1CC1
31 | 166 to 167 °C | Cc1nc(N)c2nc(C)n(CCCCCS(=O)(=O)c3ccccc3)c2c1C
32 | 196 to 198 °C | COC(=O)N(CC(=O)Nc1ccc(S(N)(=O)=O)cc1Cl)c1ccccc1
33 | 179 °C | O=c1oc(C(Cl)Cl)nc2c(C(F)(F)F)cccc12
34 | 158 to 160 °C | CC1=C(C(=O)OC(C)C)C(c2cccc(Cl)c2Cl)N(C(=O)OC(C)C)C(=O)N1 (centres undefined)
35 | 242 °C | CCn1cc(C(=O)O)c(=O)c2cc(F)c(N3CCC(NC)C3)nc21 (centres undefined)
36 | 174 to 185 °C | COC(C)c1nc(C(C)(C)O)c(C(=O)O)n1Cc1ccc(-c2ccccc2-c2nnn[nH]2)cc1 (centres undefined)
37 | 116 to 117 °C | CC(C)Nc1ccc(-c2ncc(C(F)(F)F)cc2Cl)cc1N
38 | 299 to 301 °C | Cc1nnc(-n2cc(C(=O)N3CCCC3)c3c4cc(F)ccc4n(C)c3c2=O)s1

The next lines start with the molecule.

Row | SMILES | melting point
39 | CS(=O)(=O)N1CCC2OC2CC1 (centres undefined) | 133 to 134 °C
40 | O=C(NCC(F)(F)F)C1(CCCCc2ccc(NS(=O)(=O)c3ccc([N+](=O)[O-])cc3)cc2)c2ccccc2-c2ccccc21 | 136 to 138 °C
41 | COCN1C(C)=C(C(=O)OC)C(c2cccc(Cl)c2Cl)C(C(=O)OCOC(=O)C(C)(C)C)=C1C (single isomer, unassigned; (+)) | 149 to 150 °C
42 | c1ccc(COc2cccc(-c3nc(COc4ccc(CCCn5ccnc5)cc4)co3)c2)cc1 | 112 to 113 °C
43 | CCCNC(=O)c1ccc(-c2ccc3nnn(Cc4ccc5ncccc5c4)c3n2)cc1Cl | 128 to 130 °C
44 | COc1c(Cl)cc(NC(C)=O)c(OC)c1N | 113 °C
45 | O=C(O)C(Oc1ccccc1)c1ccc(Oc2ccccc2)cc1 (centres undefined) | 144 to 146 °C
46 | COCCN(CCOC)C(=O)c1n[nH]c2c(=O)[nH]c3cc(Cl)ccc3c(=O)c12 | 207 to 209 °C
47 | O=C(c1ccc(C2CCCCC2)cc1)N1Cc2ccc(C(=O)C(Cl)(Cl)Cl)n2Cc2ccccc21 | 172 to 174 °C
48 | Cc1cc([N+](=O)[O-])c2c(c1Cl)CC(C)O2 (centres undefined) | 114 to 116 °C
49 | COC(=O)COc1cc(C(=O)N2CCOCC2)ccc1[N+](=O)[O-] | 140 to 142 °C
50 | COc1cc(NC(=C(C#N)S(C)(=O)=O)C(C)C)cc(OC)c1 | 135 to 136 °C
51 | Clc1cc(N2CCN(CCOc3ccc(Br)cc3)CC2)c(Cl)nn1 | 124 to 126 °C
52 | CCCN1N=C2C(=Cc3cccc(C(F)(F)F)c3)CS(=O)(=O)CC2C1c1cccc(C(F)(F)F)c1 (centres undefined) | 190 to 191 °C
53 | Cn1c(=O)c2c(Oc3cccc(Cl)c3)cccc2n2cnc(-c3noc(C4CC4)n3)c12 | 201 to 203 °C
54 | CCCc1c(OCCCOc2ccc(C(=O)CO)c(OC)c2CCC)ccc2c1OC(C(=O)OC)CC2 (centres undefined) | 87 to 88 °C
55 | COc1cc2ncc(C#N)c(Nc3ccc(F)c(Cl)c3)c2cc1NC(=O)CC(CN1CCC(O)C1)N1CCC(O)C1 (centres undefined) | 139 to 143 °C
56 | CSCCNC(=O)c1cccc(-c2cccc3c(C)c(Cc4cccc(C(F)(F)F)c4)oc23)c1 | 138 to 139 °C
57 | Cn1ncc2c(C(F)(F)F)cc(Cl)nc21 | 123 °C
58 | COc1cc(Nc2cc(C(=O)NN)ccn2)cc(C(F)(F)F)c1 | 229 to 230 °C
59 | CCC1(CC)Cc2cc(OCC(=O)O)c(Cl)c(Cl)c2C1=O | 111 °C

Row | SMILES | melting point
60 | CC(C)(C)c1cc(C(=O)CBr)cc2c1OCC2(C)C | 54 to 56 °C
61 | CC(=Nc1ccc2c(c1)C(=O)c1ccc(N=C(C)N3CCCCC3)cc1C2=O)N1CCCCC1 | 233 to 235 °C
62 | CCOC1=Nc2c(C)cccc2Nc2ncccc21 | 135 to 136 °C
63 | COc1nc(N)nc(OC)n1 | 218 to 221 °C
64 | O=CNc1ccc(-c2ccc(C(=O)N3CCN4CCC3CC4)o2)cc1 | 236 °C
65 | OC(c1ccc(Cl)cc1)C(Nn1cncn1)c1ccc(F)cc1F (centres undefined) | 61 to 76 °C
66 | O=C(O)C1Cc2cc3c(=O)c4c(F)cccc4oc3c(Cl)c2O1 (centres undefined) | 300 °C
67 | N#Cc1ccc2c(c1)Nc1ccc(Cl)cc1S2 | 235 °C
68 | CCC1CC2C3CCC4=CC(=O)CCC4=C3C=CC2(C)C1OC(C)=O (centres undefined) | 95 to 98 °C
69 | COc1cc(NC(NC(C)C(C)(C)C)=C(C#N)S(C)(=O)=O)cc(C(F)(F)F)c1 (centres undefined) | 110 to 113 °C
70 | CS(=O)(=O)n1ccc2cc3c(cc21)C(C#N)C3 (centres undefined) | 142 to 144 °C
71 | CCOc1nc(C)nc2oc(-c3ccco3)nc12 | 104 to 106 °C
72 | CCc1cnc(N=Cc2cnc([N+](=O)[O-])n2C)n1CCO | 185 to 187 °C
73 | CC1(C)Cc2cc(Cl)cc(Cl)c2C=[N+]1[O-] | 92 to 94 °C
74 | Fc1ccc(C2(Cn3nc[nH]c3=S)OC2c2ccccc2Cl)cc1F (centres undefined) | 165 °C
75 | Cc1nc(N2CCN(Cc3ccc(C(F)(F)F)cc3)C2=O)sc1-c1cc[nH]n1 | 212 to 213 °C
76 | COc1ccc(C(=O)NCCN(C)C)cc1 | 53 to 54 °C
77 | Cc1ccc(OCCOc2ccc(C(=O)C(=O)O)cc2)cc1 | 135 to 136 °C
78 | O=C(NO)c1ccc(CNC(=O)c2[nH]c(-c3ccccc3)cc2-c2ccc(F)c(F)c2)cc1 | 148 to 150 °C
79 | O=C(O)COc1cccc2c1CCc1sc(SC(Cc3ccccc3)c3ccccc3)nc1-2 (centres undefined) | 201 to 204 °C
80 | CN(c1cccc2cc(C3=NCC(CN4CCS(=O)(=O)CC4)S3)[nH]c12)S(=O)(=O)c1cccs1 (centres undefined) | 242 °C

Row | SMILES | melting point
81 | O[C@@H]1c2ccccc2CC[C@H]1N1CCC(O)(c2ccccc2)CC1 (relative stereo) | 184 °C
82 | CCN1Cn2c(=O)cc(-c3cccc(C(F)(F)F)c3)n3cnc(c23)C1=O | 278 to 280 °C
83 | COC(=O)C(Cc1cc(Br)c(O)c(Br)c1)NC(=O)C(F)(F)F (centres undefined) | 136 to 137 °C
84 | O=C(NCc1ccc(Cl)cc1)c1cnc2ccc(CC3CCOCC3)cc2c1O | 184 to 185 °C
85 | COc1ccc(C(=O)c2ccc3[nH]c(=O)nc(-c4cccc(Cl)c4)c3c2)cc1 | 248 °C
86 | CC(=O)NCCc1coc2ccc(OCC#N)cc12 | 72 to 73 °C
87 | CCS(=O)(=O)N(CCCCC(N)=O)C1CC(C)(C)Oc2ccc(C)cc21 (centres undefined) | 127 to 129 °C
88 | COc1ccccc1C1(O)c2cc(NC(=O)CC(C)(C)C)c(C)c(C)c2OC1(C)C (centres undefined) | 168 to 169 °C
89 | CC(=O)OCC1CC(Nc2cc(Cl)c(Cl)cc2[N+](=O)[O-])C(OC(C)=O)C1OC(C)=O (centres undefined) | 128 to 130 °C
90 | O=C(Cc1ccc(Oc2ccc(F)cc2)cc1)NC1(C(=O)O)Cc2ccc(-c3ccc(Cl)cc3)cc2C1 (centres undefined) | 232 to 234 °C
91 | N#Cc1ccc(OCCCNCCO)cc1 | 88 °C
92 | CCCCCCCc1ccc(C(=O)CCC(=O)O)cc1 | 101 to 104 °C
93 | CC1(C)CCC(C)(C)c2cc(CC#Cc3ccc(C(=O)O)c(O)c3)c(O)cc21 | 216 to 217 °C
94 | CC(=O)Nc1ccc(O)c(C(=O)CCC(=O)O)c1 | 205 to 206 °C
95 | CC(=O)Oc1cccc2[nH]ccc12 | 97 to 98 °C
96 | CNc1nc(SC)ncc1Cl | 241 °C
97 | CC(C)c1cccc(C(C)C)c1NC(=O)CN1C(=O)N(c2ccc(S(C)(=O)=O)cc2)C2(CCCCC2)C1=O | 250 °C
98 | CN(CCc1ccc(NS(C)(=O)=O)cc1)Cc1cc2cc(NS(C)(=O)=O)ccc2o1 | 177 to 179 °C
99 | CCOC1CN(Cc2ccc(OC)cc2)Cc2cc(OC)c(O)cc21 (centres undefined) | 154 to 157 °C
